Data: patent EP2271935B1, “METHOD AND KIT FOR THE EX VIVO EVALUATION OF THE RESPONSE OF A TUMOR TO CONDITIONS TO BE TESTED” (Universität Leipzig, priority 2008, dated 2009)
Like-named read-outs stand apart in the source and are kept apart here.

Test system: epithelial cell line KB (DSMZ ACC 136)
Assay: MTT assay of proliferation under varied riboflavin content and light exposure
Assay type: cell-based, human
Text: To address this question, three media, a) the RPMI 1640 without riboflavin and phenol red that is used in the method according to the invention and was manufactured according to our specifications by Biochrom, as well as two different RPMI 1640 charges purchased from Invitrogen which were each containing 532 nmol/L riboflavin, b) a phenol red-free (Gibco 11835), and c) a conventional RPMI 1640 (Gibco 21875) with 13.284 µmol/L phenol red. All media were supplemented with 2 mmol/L L-alanyl-1-glutamine as stabilized glutamine source (Biochrom K0302 Lot 0755 S) and the same amount of 10% (v/v) of heat-inactivated fetal calf serum (FCS) that was purchased from Invitrogen (Lot 41Q7554K) with a yield of 198 nmol/L riboflavin. […] These medium concentrations define the riboflavin concentrations in controls (see below).
In addition to the influences exerted by the different types of media alone, the riboflavin-dependent impact on the outcome of the docetaxel treatment was investigated. For this purpose 100 µl/well of docetaxel dilutions containing threefold the concentration indicated were added into the wells of microwell plates. The following seven docetaxel concentrations were tested: 19.38, 38.75, 77.5, 155, 310, 620, and 1,240 pmol/L.
To examine photoactivation-dependent riboflavin-mediated effects disturbing the outcome of ex-vivo chemoresponse-evaluation by conventional cell culture medium, and in particular in the absence of flavin-protecting experimental conditions, varying amounts of riboflavin were added. A stock solution of 200 µM (-)-riboflavin (CAS 83-68-5, Sigma R9504, FW=376.37 g/mol, purity >99%, cell culture tested) in phosphate buffered saline was diluted to adjust in each case the highest final concentration in culture (this means: after completion of the assay by addition of the other two components to the final assay volume of 300 µL) to exactly 10 µmol/L. Serial log10-dilutions were made from this concentration in each corresponding medium. These gave final concentrations in cell culture of 10.000, 1.018, 0.12, and 0.03 µmol/L in the case of medium a) (the medium according to the method of the invention), and concentrations of 10.000, 1.449, 0.594, and 0.508 µmol/L using media b) and c).
In general, each combination of riboflavin and docetaxel were tested in duplicate, and controls without additional riboflavin in quadruplicate for each experimental setting in the same 96-well plate. The experimental conditions were as follows: For each of the used media, two different plates were prepared simultaneously and either handled completely under flavin-protecting conditions (illumination only by sodium discharge lamps with an emission wavelength of 589 nm [i]), or in the same bench (Thermo MSC 12) with the installed light inside their working chamber switched on. The dilution of docetaxel and those of riboflavin in the particular medium were prepared for all four plates of each medium type prior to the other working steps under flavin-protecting conditions. Thus the administrations of these dilutions took about 20 min either under flavin-protecting conditions or illuminated conditions. After completed preparation of the plates that thereafter contained 200 µL of both diluted compounds, the plates were incubated 2 h in the incubator to allow for adjustment of the appropriate pH.
In between the stock culture of KB was harvested by trypsination of a 3-days stock culture (exponential growth phase). Stock cultures of KB cells always were grown without any antibiotic or antimycotic in phenol red- and riboflavin-free RPMI 1640 supplemented with 10% (v/v) FCS and were adapted to this medium for more than five passages. They were always handled at room temperature or warmer and were never exposed to light other than the light of a sodium discharge lamp with an emission wavelength of 589 nm for at least five passages. […]

[1] = medium a) (plate 01), 10 µmol/L riboflavin

CC(=O)O[C@@]12CO[C@@H]1C[C@H](O)[C@@]1(C)C(=O)[C@H](O)C3=C(C)[C@@H](OC(=O)[C@H](O)[C@@H](NC(=O)OC(C)(C)C)c4ccccc4)C[C@@](O)([C@@H](OC(=O)c4ccccc4)[C@H]21)C3(C)C [docetaxel]
IC50 (Homo sapiens, Epithelial cell, Plate No. 01; Riboflavin 10000 nmol/L; medium a), flavin-protecting conditions, read-out: IC50 for docetaxel normalized to medium control of medium with same riboflavin content): 0.123 nM | IC50 (Homo sapiens, Epithelial cell, Plate No. 05; Riboflavin 499 nmol/L; medium b) phenol red-free RPMI 1640, flavin-protecting conditions, read-out: IC50 for docetaxel with reference to control with same riboflavin content): 0.206 nM | IC50 (Homo sapiens, Epithelial cell, Plate No. 05; Riboflavin 499 nmol/L; medium b), flavin-protecting conditions, read-out: IC50 for docetaxel normalized to medium control of medium with same riboflavin content): 0.1 nM | IC50 (Homo sapiens, Epithelial cell, Plate No. 05; Riboflavin 508 nmol/L; medium b) phenol red-free RPMI 1640, flavin-protecting conditions, read-out: IC50 for docetaxel with reference to control with same riboflavin content): 0.182 nM | IC50 (Homo sapiens, Epithelial cell, Plate No. 05; Riboflavin 508 nmol/L; medium b), flavin-protecting conditions, read-out: IC50 for docetaxel normalized to medium control of medium with same riboflavin content): 0.088 nM | IC50 (Homo sapiens, Epithelial cell, Plate No. 05; Riboflavin 594 nmol/L; medium b) phenol red-free RPMI 1640, flavin-protecting conditions, read-out: IC50 for docetaxel with reference to control with same riboflavin content): 0.196 nM | IC50 (Homo sapiens, Epithelial cell, Plate No. 05; Riboflavin 594 nmol/L; medium b), flavin-protecting conditions, read-out: IC50 for docetaxel normalized to medium control of medium with same riboflavin content): 0.0949 nM | IC50 (Homo sapiens, Epithelial cell, Plate No. 05; Riboflavin 1449 nmol/L; medium b) phenol red-free RPMI 1640, flavin-protecting conditions, read-out: IC50 for docetaxel with reference to control with same riboflavin content): 0.197 nM | IC50 (Homo sapiens, Epithelial cell, Plate No. 05; Riboflavin 1449 nmol/L; medium b), flavin-protecting conditions, read-out: IC50 for docetaxel normalized to medium control of medium with same riboflavin content): 0.0954 nM | IC50 (Homo sapiens, Epithelial cell, Plate No. 05; Riboflavin 10000 nmol/L; medium b) phenol red-free RPMI 1640, flavin-protecting conditions, read-out: IC50 for docetaxel with reference to control with same riboflavin content): 0.238 nM | IC50 (Homo sapiens, Epithelial cell, Plate No. 05; Riboflavin 10000 nmol/L; medium b), flavin-protecting conditions, read-out: IC50 for docetaxel normalized to medium control of medium with same riboflavin content): 0.115 nM | IC50 (Homo sapiens, Epithelial cell, Plate No. 09; Riboflavin 499 nmol/L; medium c) conventional RPMI 1640 with phenol red, flavin-protecting conditions, read-out: IC50 for docetaxel with reference to control with same riboflavin content): 0.233 nM | IC50 (Homo sapiens, Epithelial cell, Plate No. 09; Riboflavin 499 nmol/L; medium c), flavin-protecting conditions, read-out: IC50 for docetaxel normalized to medium control of medium with same riboflavin content): 0.1 nM | IC50 (Homo sapiens, Epithelial cell, Plate No. 09; Riboflavin 508 nmol/L; medium c) conventional RPMI 1640 with phenol red, flavin-protecting conditions, read-out: IC50 for docetaxel with reference to control with same riboflavin content): 0.189 nM | IC50 (Homo sapiens, Epithelial cell, Plate No. 09; Riboflavin 508 nmol/L; medium c), flavin-protecting conditions, read-out: IC50 for docetaxel normalized to medium control of medium with same riboflavin content): 0.0813 nM | IC50 (Homo sapiens, Epithelial cell, Plate No. 09; Riboflavin 594 nmol/L; medium c) conventional RPMI 1640 with phenol red, flavin-protecting conditions, read-out: IC50 for docetaxel with reference to control with same riboflavin content): 0.201 nM | IC50 (Homo sapiens, Epithelial cell, Plate No. 09; Riboflavin 594 nmol/L; medium c), flavin-protecting conditions, read-out: IC50 for docetaxel normalized to medium control of medium with same riboflavin content): 0.0865 nM | IC50 (Homo sapiens, Epithelial cell, Plate No. 09; Riboflavin 1449 nmol/L; medium c) conventional RPMI 1640 with phenol red, flavin-protecting conditions, read-out: IC50 for docetaxel with reference to control with same riboflavin content): 0.284 nM | IC50 (Homo sapiens, Epithelial cell, Plate No. 09; Riboflavin 1449 nmol/L; medium c), flavin-protecting conditions, read-out: IC50 for docetaxel normalized to medium control of medium with same riboflavin content): 0.122 nM | IC50 (Homo sapiens, Epithelial cell, Plate No. 09; Riboflavin 10000 nmol/L; medium c) conventional RPMI 1640 with phenol red, flavin-protecting conditions, read-out: IC50 for docetaxel with reference to control with same riboflavin content): 0.394 nM | IC50 (Homo sapiens, Epithelial cell, Plate No. 09; Riboflavin 10000 nmol/L; medium c), flavin-protecting conditions, read-out: IC50 for docetaxel normalized to medium control of medium with same riboflavin content): 0.169 nM | IC50 (Homo sapiens, Epithelial cell, medium a) (plate 01), 10 µmol/L riboflavin, flavin-protecting conditions, read-out: IC50 relating to medium control): 0.224 nM | IC50 (Homo sapiens, Epithelial cell, medium a) (plate 01), 10 µmol/L riboflavin, flavin-protecting conditions, read-out: IC50 with reference to individual control): 0.257 nM | IC50 (Homo sapiens, Epithelial cell, plates 01, 05, 09 handled completely under flavin-protecting conditions, three types of RPMI 1640, read-out: IC50 values for docetaxel): ~0.2 nM | IC50 as % of the IC50 at 20 nmol/L riboflavin, relating to medium control [1]: 107% | IC50 as % of the IC50 detected in a) at 20 nmol/L riboflavin, individual control [1]: 128%
